Measured values from patent publication US8420851B2, “Selective TR-β 1 agonist” (Cadila Healthcare Limited, priority 2006, dated 2013).

Columns and labels:
[1] = target: T1, TR-α (Homo sapiens, UniProt P10827); assay: In vitro TR-α activity (in-house protocol); format: cell-based
T1 sequence (P10827 1-410 isoform P10827-2): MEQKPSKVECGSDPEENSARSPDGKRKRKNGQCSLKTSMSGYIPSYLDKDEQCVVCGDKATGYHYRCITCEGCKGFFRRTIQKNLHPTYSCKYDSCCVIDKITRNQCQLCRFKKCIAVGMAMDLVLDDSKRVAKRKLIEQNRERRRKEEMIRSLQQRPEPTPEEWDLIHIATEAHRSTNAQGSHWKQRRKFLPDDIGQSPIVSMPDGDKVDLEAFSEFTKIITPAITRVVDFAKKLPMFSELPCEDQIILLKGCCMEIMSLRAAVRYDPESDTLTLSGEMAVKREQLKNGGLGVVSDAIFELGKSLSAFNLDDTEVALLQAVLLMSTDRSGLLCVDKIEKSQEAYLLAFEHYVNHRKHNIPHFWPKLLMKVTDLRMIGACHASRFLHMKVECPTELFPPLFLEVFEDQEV
Description: (§1) Invitro TR-α & TR-β activities were determined as per in-house protocols and the results of representative compounds are provided in tables 1 & 2 below as a proof of the efficacies of the novel class of compounds disclosed above.

[2] = target: T2, TR-β (Homo sapiens, UniProt P10828); assay: In vitro TR-β activity (in-house protocol); format: cell-based; details: for fold induction at 0.01 µM: Conc. 10 nM; for fold induction at 0.01 µM / fold induction at 0.1 µM / fold induction at 1 µM / fold induction at 0.001 µM: read-out: TR-β Fold Induction w.r.t T3(100 nm); for fold induction at 0.1 µM: Conc. 100 nM; for fold induction at 1 µM: Conc. 1000 nM; for fold induction at 0.001 µM: Conc. 1 nM
T2 sequence (P10828 1-461): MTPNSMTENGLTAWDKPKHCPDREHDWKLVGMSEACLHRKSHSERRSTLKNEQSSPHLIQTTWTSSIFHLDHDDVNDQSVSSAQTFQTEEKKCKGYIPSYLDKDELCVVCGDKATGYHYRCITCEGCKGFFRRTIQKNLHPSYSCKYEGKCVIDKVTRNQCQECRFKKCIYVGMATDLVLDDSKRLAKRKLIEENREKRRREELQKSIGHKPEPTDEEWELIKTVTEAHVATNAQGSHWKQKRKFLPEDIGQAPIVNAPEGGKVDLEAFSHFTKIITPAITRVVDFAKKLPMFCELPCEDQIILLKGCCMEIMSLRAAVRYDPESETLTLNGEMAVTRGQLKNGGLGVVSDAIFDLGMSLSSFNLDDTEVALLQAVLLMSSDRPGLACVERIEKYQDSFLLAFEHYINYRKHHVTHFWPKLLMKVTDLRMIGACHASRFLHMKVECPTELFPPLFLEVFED
Description: as §1

SMILES | EC50 [1] [nM] | EC50 [2] [nM] | TR-α Fold Induction w.r.t T3(100 nm) ([1]; Conc. 10 nM) | TR-α Fold Induction w.r.t T3(100 nm) ([1]; Conc. 100 nM) | TR-α Fold Induction w.r.t T3(100 nm) ([1]; Conc. 1000 nM) | fold induction at 0.01 µM [2] | fold induction at 0.1 µM [2] | fold induction at 1 µM [2] | TR-α Fold Induction w.r.t T3(100 nm) ([1]; Conc. 1 nM) | fold induction at 0.001 µM [2]
CCOC(=O)N(CC(=O)O)c1cc(Cl)c(Oc2ccc(O)c(C(C)C)c2)c(Cl)c1 [Example 1, {[3,5-Dichloro-4-(4-hydroxy-3-isopropyl-phenoxy)-phenyl]-ethoxycarbonyl-amino}-acetic acid] | 440 | 146 |  |  |  |  |  |  |  | 
CCOC(=O)N(CC(=O)O)c1cc(Cl)c(Oc2ccc(O)c(C(C)CC)c2)c(Cl)c1 (stereo not shown) [Example 2, {[4-(3-sec-Butyl-4-hydroxy-phenoxy)-3,5-dichloro-phenyl]-ethoxycarbonyl-amino}-acetic acid] | 119 | 162 |  |  |  |  |  |  |  | 
CCOC(=O)N(CC(=O)O)c1cc(Cl)c(Oc2ccc(O)c(Cc3ccccc3)c2)c(Cl)c1 [Example 3, {[4-(3-Benzyl-4-hydroxy-phenoxy)-3,5-dichloro-phenyl]-ethoxycarbonyl-amino}-acetic acid] | 274 | 89 |  |  |  |  |  |  |  | 
CCOC(=O)N(CC(=O)O)c1cc(Cl)c(Oc2ccc(O)c(C(C)(C)C)c2)c(Cl)c1 [Example 13, {[4-(3-tert-Butyl-4-hydroxy-phenoxy)-3,5-dichloro-phenyl]-ethoxycarbonyl-amino}-acetic acid] |  |  | 49.80 | 96.60 | 72.90 | 44.2 | 80.6 | 75 |  | 
CCOC(=O)N(CC(=O)O)c1cc(Cl)c(Oc2ccc(O)c(-c3ccccc3)c2)c(Cl)c1 [Example 14, {[3,5-Dichloro-4-(6-hydroxy-biphenyl-3-yloxy)-phenyl]-ethoxycarbonyl-amino}-acetic acid] |  |  | 11.10 | 36.30 | 45.90 | 16.4 | 58.5 | 77.3 |  | 
CCOC(=O)N(CC(=O)O)c1cc(Cl)c(Oc2ccc(O)c(C(=O)c3ccc(F)cc3)c2)c(Cl)c1 [Example 15, ({3,5-Dichloro-4-[3-(4-fluoro-benzoyl)-4-hydroxy-phenoxy]-phenyl}-ethoxycarbonyl-amino)-acetic acid] |  |  | 11.34 | 39.66 | 33.74 | 23.5 | 70.5 | 66.8 |  | 
CCOC(=O)N(CC(=O)O)c1cc(Cl)c(Oc2ccc(O)c(C(=O)c3ccc(Cl)s3)c2)c(Cl)c1 [Example 17, ({3,5-Dichloro-4-[3-(5-chloro-thiophene-2-carbonyl)-4-hydroxy-phenoxy]-phenyl}-ethoxycarbonyl-amino)-acetic acid] |  |  | 21.19 | 51.82 | 53.12 | 27.7 | 72.8 | 77.9 |  | 
CCOC(=O)N(CC(=O)O)c1cc(C)c(Oc2ccc(O)c(C(C)CC)c2)c(C)c1 (stereo not shown) [Example 18, {[4-(3-sec-Butyl-4-hydroxy-phenoxy)-3,5-dimethyl-phenyl]-ethoxycarbonyl-amino}-acetic acid] |  |  | 8.90 | 12.97 | 16.87 | 18.6 | 23 | 42.6 | 6.62 | 9.44
CCOC(=O)N(CC(=O)O)c1cc(Cl)c(Oc2ccc(O)c(C(=O)c3ccc(Cl)cc3)c2)c(Cl)c1 [Example 20, ({3,5-Dichloro-4-[3-(4-chloro-benzoyl)-4-hydroxy-phenoxy]-phenyl}-ethoxycarbonyl-amino)-acetic acid] |  |  | 15.74 | 21.47 | 18.49 | 40.7 | 87.7 | 81.2 | 10.42 | 19.9
CCC(C)c1cc(Oc2c(C)cc(N(CC(=O)O)CC(=O)O)cc2C)ccc1O (stereo not shown) [Example 21, {[4-(3-sec-Butyl-4-hydroxy-phenoxy)-3,5-dimethyl-phenyl]-carboxymethyl-amino}-acetic acid] |  |  | 56.81 | 110.66 | 93.53 | 153 | 202 | 148 | 17.17 | 33.4
CCC(C)c1cc(Oc2c(Cl)cc(N(CC(=O)O)C(=O)Oc3ccc(O)cc3)cc2Cl)ccc1O (stereo not shown) [Example 23, [[4-(3-sec-Butyl-4-hydroxy-phenoxy)-3,5-dichloro-phenyl]-(4-hydroxy-phenoxycarbonyl)-amino]-acetic acid] | 9.26 | 2.6 |  |  |  |  |  |  |  | 
CCOC(=O)N(CC(=O)O)c1cc(Cl)c(Oc2ccc(O)c(C(=O)c3ccc(C(C)(C)C)cc3)c2)c(Cl)c1 [Example 24, ({4-[3-(4-tert-Butyl-benzoyl)-4-hydroxy-phenoxy]-3,5-dichloro-phenyl}-ethoxycarbonyl-amino)-acetic acid] |  |  | 20.00 | 50.00 | 70.00 | 40 | 100 | 75 | 10.00 | 20
CCOC(=O)N(CC(=O)O)c1cc(Cl)c(Oc2ccc(O)c(C(=O)c3cccc(Cl)c3)c2)c(Cl)c1 [Example 25, ({3,5-Dichloro-4-[3-(3-chloro-benzoyl)-4-hydroxy-phenoxy]-phenyl}-ethoxycarbonyl-amino)-acetic acid] |  |  | 8.55 | 12.70 | 7.15 | 26.3 | 70.1 | 51.7 | 4.22 | 10.9
CCC(C)c1cc(Oc2c(Cl)cc(N(CC(=O)O)CC(=O)O)cc2Cl)ccc1O (stereo not shown) [Example 26, {[4-(3-sec-Butyl-4-hydroxy-phenoxy)-3,5-dichloro-phenyl]-carboxymethyl-amino}-acetic acid] | 176 | 28.1 |  |  |  |  |  |  |  | 
O=C(O)CN(CC(=O)O)c1cc(Cl)c(Oc2ccc(O)c(C(=O)c3ccc(Cl)cc3)c2)c(Cl)c1 [Example 28, (Carboxymethyl-{3,5-dichloro-4-[3-(4-chloro-benzoyl)-4-hydroxy-phenoxy]-phenyl}-amino)-acetic acid] |  |  | 14.71 | 25.77 | 33.47 | 20.9 | 45.4 | 46.1 | 8.97 | 10.4
CC(C)c1cc(Oc2c(Cl)cc(N(CC(=O)O)CC(=O)O)cc2Cl)ccc1O [Example 31, {Carboxymethyl-[3,5-dichloro-4-(4-hydroxy-3-isopropyl-phenoxy)-phenyl]-amino}-acetic acid] |  |  | 17.06 | 50.99 | 46.21 | 27.8 | 64.3 | 75.2 | 8.17 | 12.1
CC(C)c1cc(Oc2c(Cl)cc(N(CC(=O)O)C(=O)Oc3ccc(O)cc3)cc2Cl)ccc1O [Example 32, [[3,5-Dichloro-4-(4-hydroxy-3-isopropyl-phenoxy)-phenyl]-(4-hydroxy-phenoxycarbonyl)-amino]-acetic acid] |  |  | 74.20 | 87.50 | 72.37 | 73.7 | 119 | 94.9 | 23.36 | 24.7
O=C(O)CN(CC(=O)O)c1cc(Cl)c(Oc2ccc(O)c(S(=O)(=O)N3CCCCC3)c2)c(Cl)c1 [Example 33, (Carboxymethyl-{3,5-dichloro-4-[4-hydroxy-3-(piperidine-1-sulfonyl)-phenoxy]-phenyl}-amino)-acetic acid] |  |  | 13.90 | 25.46 | 46.33 | 11.9 | 26 | 46.8 | 9.66 | 8.63
